# Results taken from patent publication US20130310374A1, “Substituted Imidazoquinoline Derivatives” (PIRAMAL ENTERPRISES LIMITED`, priority 2010, published 2013).
# What was measured:
# MDA MB 231 = test: Cytotoxicity propidium iodide assay, MDA MB 231; assay type: cell-based; conditions: Homo sapiens; MDA MB 231 (breast), 48 hours treatment; read-out: IC50 Values in μM, C3a
# Experimental: (§1) The assay was designed as in the reference, Anticancer Drugs, 2002, 13, 1-8, the disclosure of which is incorporated herein by reference for the teaching of the assay.
# (§2) Cells from cell lines (ATCC) as mentioned in the table given below were seeded at a density of 3000 cells/well in a white opaque 96-well plate. Following incubation at 37° C./5% CO2 for a period of 18-24 hours, the cells were treated with various concentrations (stock solution was prepared in DMSO and subsequent dilutions were made in media as per ATCC guidelines) of the compounds of the present invention for a period of 48 hours. At the end of treatment, the culture medium was discarded, the cells were washed with 1×PBS and 200 μL of […] propidium iodide was added to each well. […] For analysis, the plates were warmed to RT, allowed to thaw and were read in PoleStar fluorimeter with the fluorescence setting. The percentage of viable cells in the non-treated set of wells was considered to be 100 and the percentage viability following treatment was calculated accordingly. IC50 values were calculated from graphs plotted using these percentages. IC50 values for certain compounds of present invention are depicted in Table 1 and % Inhibition of certain compounds of present invention are depicted in Table 2.
# KCL22/SR = test: Cytotoxicity propidium iodide assay, KCL22/SR; assay type: cell-based; conditions: Homo sapiens, KCL-22; KCL22/SR (CML), 48 hours treatment; read-out: IC50 Values in μM, C6e
# Experimental: as §1
# (§3) Cells from cell lines (ATCC) as mentioned in the table given below were seeded at a density of 3000 cells/well in a white opaque 96-well plate. Following incubation at 37° C./5% CO2 for a period of 18-24 hours, the cells were treated with various concentrations (stock solution was prepared in DMSO and subsequent dilutions were made in media as per ATCC guidelines) of the compounds of the present invention for a period of 48 hours. At the end of treatment, the culture medium was discarded, the cells were washed with 1×PBS and 200 μL of […] propidium iodide was added to each well. The plates were frozen at […] overnight. For analysis, the plates were warmed to RT, allowed to thaw and were read in PoleStar fluorimeter with the fluorescence setting. The percentage of viable cells in the non-treated set of wells was considered to be 100 and the percentage viability following treatment was calculated accordingly. IC50 values were calculated from graphs plotted using these percentages. IC50 values for certain compounds of present invention are depicted in Table 1 and % Inhibition of certain compounds of present invention are depicted in Table 2.
# K562 = test: Cytotoxicity propidium iodide assay, K562; assay type: cell-based; conditions: Homo sapiens; K562 (CML), 48 hours treatment; read-out: IC50 Values in μM, C6a
# Experimental: as §1, §3
# PI3K/mTOR pathway = test: Western blot analysis in A2780 ovarian cancer cell line; assay type: cell-based; conditions: A2780 cells treated for 1 hour; FIG. 1A-1E
# Experimental: Protocol for Western Blot Analysis
# A2780 ovarian cancer cell line (ATCC) were grown to approximately 70% confluence in 100-mm tissue culture dishes and then treated for 1 hour with […] compounds of Example 2, 3, 5, 16, 19, 55 and 59. Total protein was extracted using cell lysis buffer (NaCl […], NP40 0.67%, Tris-Cl, pH 7.5, 67 mM) containing protease inhibitors and phosphatase inhibitors (Beta-glycerol phosphate 40 mM, DTT 1 mM, NaF 0.4 mM, Sodium-Orthovanadate 0.4 mM) at 4° C. for 1 hour. Cell lysates were then centrifuged at 2×10^4 g for 10 minutes at 4° C., and the protein concentration of the supernatant was quantified using the Bradford's method (BioRad, USA). For SDS-PAGE, 50 μg protein was loaded in SDS-PAGE, transferred to a polyvinylidene difluoride membrane (Bio-Rad, USA) and blocked with 5 mL buffer [5% skim milk and 0.1% Tween] for 1 hour 30 minutes. Membrane were probed with primary antibody (all primary antibodies were from cell signaling with 1:1000 in TBST solution) of respective protein at 4° C. overnight. Peroxidase-labeled anti-rabbit or anti-mouse antibodies (Santacruze, USA) were used as the secondary antibody. Actin and respective whole protein levels were used as the control for protein loading. Protein antigens were detected using Chemiluminescent Substrate (Thermo scientific, USA) and exposed on Kodak station.
# BT 549 = test: Cytotoxicity propidium iodide assay, BT 549; assay type: cell-based; conditions: Homo sapiens; BT 549 (breast), 48 hours treatment; read-out: IC50 Values in μM, C3c
# Experimental: as §1, §3
# MCF7 = test: Cytotoxicity propidium iodide assay, MCF7; assay type: cell-based; conditions: Homo sapiens; MCF7 (breast), 48 hours treatment; read-out: IC50 Values in μM, C3d
# Experimental: as §1, §3
# BxPC3 = test: Cytotoxicity propidium iodide assay, BxPC3; assay type: cell-based; conditions: Homo sapiens, BXPC-3; BxPC3 (pancreatic), 48 hours treatment; read-out: IC50 Values in μM, C4c
# Experimental: as §1, §3
# LN18 = test: Cytotoxicity propidium iodide assay, LN18; assay type: cell-based; conditions: Homo sapiens, LN-18; LN18 (glioblastoma), 48 hours treatment; read-out: IC50 Values in μM, C5b
# Experimental: as §1, §3
# MDA MB 468 = test: Cytotoxicity propidium iodide assay, MDA MB 468; assay type: cell-based; conditions: Homo sapiens; MDA MB 468 (breast), 48 hours treatment; read-out: IC50 Values in μM, C3b
# Experimental: as §1, §3
# PC3 = test: Cytotoxicity propidium iodide assay, PC3; assay type: cell-based, human; conditions: Homo sapiens, PC-3
# Experimental: as §1, §3
# LN229 = test: Cytotoxicity propidium iodide assay, LN229; assay type: cell-based; conditions: Homo sapiens, LN-229; LN229 (glioblastoma), 48 hours treatment; read-out: IC50 Values in μM, C5a
# Experimental: as §1, §3
# T315I = test: Cytotoxicity propidium iodide assay, T315I; assay type: cell-based; conditions: T315I (CML), 48 hours treatment; read-out: IC50 Values in μM, C6b
# Experimental: as §1, §3
# KU812/SR = test: Cytotoxicity propidium iodide assay, KU812/SR; assay type: cell-based; conditions: Homo sapiens; KU812/SR (CML), 48 hours treatment; read-out: IC50 Values in μM, C6c
# Experimental: as §1, §3
# AsPC 1 = test: Cytotoxicity propidium iodide assay, AsPC 1; assay type: cell-based; conditions: Homo sapiens, ASPC1; AsPC 1 (pancreatic), 48 hours treatment; read-out: IC50 Values in μM, C4b
# Experimental: as §1, §2
# A2780 = test: Cytotoxicity propidium iodide assay, A2780; assay type: cell-based; conditions: Homo sapiens
# Experimental: as §1, §3
# U 87 MG = test: Cytotoxicity propidium iodide assay, U 87 MG; assay type: cell-based; conditions: Homo sapiens; U 87 MG (glioblastoma), 48 hours treatment; read-out: IC50 Values in μM, C5c
# Experimental: as §1, §2
# hPBMC [1] = test: MTS toxicity assay in parallel to anti-CD3/anti-CD28 cytokine assay; assay type: cell-based, human; conditions: anti-CD3/anti-CD28 experiment
# Experimental: (§4) hPBMC stimulation: Peripheral blood was collected from normal healthy volunteers after informed consent. Peripheral blood mononuclear cells (hPBMC) were harvested using Ficoll-Hypaque density gradient centrifugation (1.077 g/mL; Sigma Aldrich). hPBMCs were resuspended in RPMI 1640 culture medium (Gibco BRL, Pasley, UK) containing 10% FCS, 100 U/mL penicillin (Sigma Chemical Co. St Louis, Mo.) and […] streptomycin (Sigma Chemical Co. St Louis, Mo.) at 1.25×10^6 cells/mL of assay medium. 2.5×10^5 hPBMCs were added per well of 96-well plate coated with or without anti-CD3/anti-CD28 mAbs. Simultaneously, 0.025 μM of compounds of the present invention or 0.5% DMSO (vehicle control) were added to appropriate wells. The cells were then incubated for 18 hours at 37° C., 5% CO2 following which supernatants were collected, stored at […] and assayed later for TNF-α, IL-6 and IFN-γ by ELISA (OptiEIA ELISA sets; BD Biosciences). In every experiment, each condition was run in triplicate wells. In all experiments, the toxicity of test compounds was ascertained, in parallel, using the MTS (3-(4,5-dimethylthiazol-2-yl)-5-(3-carboxymethoxyphenyl)-2-(4-sulfonyl)-2H-tetrazolium) assay as described in Am. J. Physiol. Cell Physiol., 2003, 285, C813-C822.
# IFN-γ [2] = test: Anti-CD3 mAb and anti-CD28 mAb-induced cytokine production assay, IFN-γ; assay type: cell-based; conditions: Homo sapiens, hPBMC, anti-CD3/anti-CD28, 18 hours
# Experimental: (§5) Anti-CD3 mAb and Anti-CD28 mAb-Induced Cytokine Production Assay
# (§6) Preparation of anti-CD3/anti-CD28 coated plates: 96 well plates were coated with goat anti-mouse IgG, Fc (Millipore) at a concentration of 16.5 μg/mL in coating buffer ([…] NaHCO3, 3.56 g Na2CO3, pH 9.5). Following overnight incubation at 4° C., the plates were washed and then incubated with anti-CD3 (3.5 μg/mL; R&D Systems) and anti-CD28 (35 ng/mL; R&D Systems) cocktail for 3 hours. Subsequently, the plates were washed, and used for hPBMC stimulation.
# as §4
# IL-6 = test: Anti-CD3 mAb and anti-CD28 mAb-induced cytokine production assay, IL-6; assay type: cell-based; conditions: Homo sapiens, hPBMC, anti-CD3/anti-CD28, 18 hours
# Experimental: as §5, §6, §4
# hPBMC [3] = test: MTS toxicity assay in parallel to Con-A-induced IFN-γ assay; assay type: cell-based, human; conditions: Con-A experiment
# Experimental: (§7) Peripheral blood was collected from normal healthy volunteers after informed consent. Peripheral blood mononuclear cells (hPBMC) were harvested using Ficoll-Hypaque density gradient centrifugation (1.077 g/mL; Sigma Aldrich). hPBMCs were resuspended in RPMI 1640 culture medium (Gibco BRL, Pasley, UK) containing 10% FCS, 100 U/mL penicillin (Sigma Chemical Co. St Louis, Mo.) and […] streptomycin (Sigma Chemical Co. St Louis, Mo.) at 1×10^6 cells/mL. 1×10^5 hPBMCs/well were pre-treated with 0.025 μM of compounds of present invention or 0.5% DMSO (vehicle control) for 30 minutes at 37° C. Subsequently, these cells were stimulated with 1 μg/mL concanavalin A (Sigma Chemical Co., St. Louis, Mo.). Following 18 hours of incubation at 37° C., supernatants were collected and stored at −70° C. until assayed for human IFN-γ by ELISA as described by the manufacturer (OptiEIA ELISA sets, BD BioSciences). In every experiment, cyclosporin (1 μM) was used as a positive control for inhibiting induced IFN-γ production. In all experiments, the toxicity of test compounds was ascertained, in parallel, using the MTS (3-(4,5-dimethylthiazol-2-yl)-5-(3-carboxymethoxyphenyl)-2-(4-sulfonyl)-2H-tetrazolium) assay as described in Am. J. Physiol. Cell Physiol., 2003, 285, C813-C822.
# TNF-α = test: Anti-CD3 mAb and anti-CD28 mAb-induced cytokine production assay, TNF-α; assay type: cell-based; conditions: Homo sapiens, hPBMC, anti-CD3/anti-CD28, 18 hours
# Experimental: as §5, §6, §4
# IFN-γ [4] = test: Con-A-induced IFN-γ production from hPBMC; assay type: cell-based; conditions: Homo sapiens, concanavalin A 1 μg/mL, 18 hours
# Experimental: Con-A-Induced IFN-γ Production from hPBMC
# as §7
compound,measurement,setting,value
"Cn1c(=O)n(-c2ccc(C(F)(F)F)nc2)c2c3cc(-c4cnc(N)c(C(F)(F)F)c4)ccc3ncc21 [Example 55, 8-(6-Amino-5-(trifluoromethyl)pyridin-3-yl)-3-methyl-1-(6-(trifluoromethyl)pyridin-3-yl)-1H-imidazo[4,5-c]quinolin-2(3H)-one]",IC50,MDA MB 231,0.035 µM
same,IC50,KCL22/SR,0.06 µM
same,IC50,K562,0.056 µM
same,"Akt, S6 and 4EBP1 phosphorylation (Western blot)",PI3K/mTOR pathway,"inhibit Akt, S6 and 4EBP1 phosphorylation"
same,IC50,BT 549,0.17 µM
same,IC50,MCF7,0.06 µM
same,IC50,BxPC3,0.027 µM
same,IC50,LN18,0.282 µM
same,IC50,MDA MB 468,0.075 µM
same,IC50,"PC3; PC3 (prostate), 48 hours treatment, read-out: IC50 Values in μM, C2a",1.6 µM
same,IC50,LN229,0.096 µM
same,IC50,T315I,0.19 µM
same,IC50,KU812/SR,0.23 µM
same,IC50,AsPC 1,0.04 µM
same,IC50,"A2780; A2780 (ovarian), 48 hours treatment, read-out: IC50 Values in μM, C1a",0.009 µM
same,IC50,U 87 MG,7.92 µM
"Cn1c(=O)n(-c2ccc(C(F)(F)F)nc2)c2c3cc(-c4ccc(F)nc4F)ccc3ncc21 [Example 57, 8-(2,6-Difluoropyridin-3-yl)-3-methyl-1-(6-(trifluoromethyl)pyridin-3-yl)-1H-imidazo [4,5-c]quinolin-2(3H)-one]",% Toxicity at 0.025 μM,hPBMC [1],14%
same,inhibition at 0.025 µM,IFN-γ [2],88%
same,inhibition at 0.025 µM,IL-6,94%
same,% Toxicity at 0.025 μM,hPBMC [3],14%
same,inhibition at 0.025 µM,TNF-α,80%
same,inhibition at 0.025 µM,IFN-γ [4],88%
"Cn1c(=O)n(-c2ccc(Cl)nc2Cl)c2c3cc(-c4cccnc4)ccc3ncc21 [Example 62, 1-(2,6-Dichloropyridin-3-yl)-3-methyl-8-(pyridin-3-yl)-1H-imidazo[4,5-c]quinolin-2(3H)-one]",IC50,KCL22/SR,0.62 µM
same,IC50,K562,0.144 µM
same,IC50,BT 549,1.5 µM
same,IC50,LN18,1.08 µM
same,inhibition at 1 µM,"PC3; PC3, 1 μM, 48 hours, read-out: % Inhibition at 1 μM, C2a",28%
same,IC50,LN229,1.03 µM
same,IC50,KU812/SR,0.84 µM
same,inhibition at 1 µM,"A2780; A2780, 1 μM, 48 hours, read-out: % Inhibition at 1 μM, C1a",69%
same,IC50,U 87 MG,9.92 µM
